The NIST ThermoML archive (doi:10.1021/acs.jced.8b00975)

Assay: xn = mol fraction of the nth substance listed
Conditions: Liquid, Vibrating tube method

C=C(C)C(=O)OCCN(C)C [2-(dimethylamino)ethyl methylpropenoate] + CCCCO
mass density [kg/m3]
Conditions	100 kPa	5000 kPa	10000 kPa	15000 kPa	20000 kPa	25000 kPa	30000 kPa	35000 kPa
293.15 K, x1 = 0.0301	817.21	820.9	824.39	827.71	830.88	833.94	836.92	839.85
293.15 K, x1 = 0.06	824.09	827.83	831.32	834.6	837.73	840.76	843.75	846.74
293.15 K, x1 = 0.1005	833.13	836.85	840.32	843.61	846.74	849.77	852.74	855.68
293.15 K, x1 = 0.1995	852.44	856.11	859.55	862.82	865.96	869	872	875.01
293.15 K, x1 = 0.2993	868.71	872.37	875.83	879.12	882.28	885.36	888.38	891.38
293.15 K, x1 = 0.4005	882.69	886.4	889.87	893.17	896.32	899.39	902.42	905.46
293.15 K, x1 = 0.4521	889.04	892.7	896.14	899.43	902.58	905.66	908.71	911.75
293.15 K, x1 = 0.499	894.3	897.94	901.38	904.66	907.82	910.91	913.96	917.02
293.15 K, x1 = 0.5494	899.59	903.22	906.66	909.96	913.14	916.24	919.29	922.33
293.15 K, x1 = 0.5994	904.39	908.07	911.52	914.8	917.94	921.02	924.09	927.2
293.15 K, x1 = 0.7005	913.06	916.73	920.19	923.49	926.66	929.77	932.85	935.95
293.15 K, x1 = 0.7989	920.53	924.22	927.7	931.01	934.2	937.32	940.42	943.55
293.15 K, x1 = 0.8992	927.17	930.88	934.38	937.71	940.93	944.08	947.2	950.36
293.15 K, x1 = 0.9293	928.88	932.61	936.14	939.5	942.75	945.91	949.02	952.13
293.15 K, x1 = 0.9592	930.67	934.41	937.96	941.35	944.61	947.78	950.89	953.97
303.15 K, x1 = 0.0302	809.38	813.38	817.11	820.61	823.91	827.06	830.08	833.02
303.15 K, x1 = 0.0602	816.25	820.35	824.12	827.61	830.9	834.03	837.07	840.08
303.15 K, x1 = 0.1007	825	829.05	832.79	836.28	839.57	842.73	845.81	848.85
303.15 K, x1 = 0.2007	844.03	848.08	851.83	855.35	858.69	861.89	865.03	868.15
303.15 K, x1 = 0.3007	860.04	864.03	867.77	871.3	874.67	877.92	881.1	884.26
303.15 K, x1 = 0.4013	873.63	877.52	881.22	884.76	888.16	891.46	894.68	897.86
303.15 K, x1 = 0.4512	879.59	883.43	887.11	890.65	894.08	897.42	900.69	903.91
303.15 K, x1 = 0.5007	885.03	888.88	892.55	896.09	899.51	902.86	906.16	909.45
303.15 K, x1 = 0.5502	890.11	894.02	897.73	901.29	904.73	908.09	911.42	914.74
303.15 K, x1 = 0.6045	895.25	899.16	902.88	906.44	909.9	913.27	916.62	919.96
303.15 K, x1 = 0.7005	903.5	907.36	911.08	914.68	918.19	921.62	925.01	928.36
303.15 K, x1 = 0.8026	911.12	914.97	918.68	922.29	925.8	929.26	932.68	936.08
303.15 K, x1 = 0.9026	917.53	921.4	925.14	928.77	932.32	935.81	939.25	942.69
303.15 K, x1 = 0.9303	919.17	923.07	926.83	930.48	934.04	937.53	940.98	944.42
303.15 K, x1 = 0.9616	921.02	924.91	928.67	932.32	935.89	939.4	942.88	946.34
313.15 K, x1 = 0.0302	801.72	805.93	809.83	813.46	816.91	820.24	823.51	826.8
313.15 K, x1 = 0.0603	808.58	812.75	816.62	820.25	823.69	827.01	830.28	833.54
313.15 K, x1 = 0.1019	817.15	821.38	825.29	828.95	832.41	835.74	839	842.24
313.15 K, x1 = 0.2001	835.66	839.79	843.65	847.3	850.79	854.16	857.46	860.72
313.15 K, x1 = 0.301	851.41	855.57	859.51	863.24	866.8	870.21	873.49	876.67
313.15 K, x1 = 0.3999	864.54	868.7	872.64	876.4	880	883.45	886.78	890.02
313.15 K, x1 = 0.4519	870.67	874.82	878.78	882.54	886.15	889.61	892.94	896.17
313.15 K, x1 = 0.5002	875.94	880.09	884.04	887.81	891.43	894.9	898.25	901.51
313.15 K, x1 = 0.5505	881.12	885.27	889.22	893.01	896.64	900.13	903.49	906.74
313.15 K, x1 = 0.6004	885.84	890.02	894	897.79	901.42	904.91	908.27	911.52
313.15 K, x1 = 0.701	894.49	898.55	902.51	906.34	910.04	913.62	917.04	920.32
313.15 K, x1 = 0.8004	901.91	905.99	909.92	913.71	917.39	920.98	924.48	927.93
313.15 K, x1 = 0.9	908.36	912.45	916.43	920.31	924.08	927.72	931.24	934.63
313.15 K, x1 = 0.9322	910.31	914.45	918.45	922.31	926.03	929.63	933.11	936.46
313.15 K, x1 = 0.9608	911.98	916.12	920.11	923.96	927.68	931.27	934.75	938.13
